Where a name gives a salt, the structure may show the parent alone.
| melting point | Compound |
| --- | --- |
| 209 °C (dec.) | Cc1cc2c(s1)Nc1ccccc1N=C2N1CCN[C@@H](CCc2ccccc2F)C1 (as salt: hydrochloride) [Example 178, 10-((S)-3-(2-(2-Fluoro-phenyl)-ethyl)-piperazin-1-yl)-2-methyl-4H-3-thia-4,9-diaza-benzo[f]azulene dihydrochloride] |
| 213 °C (dec.) | COc1ccc(CC[C@H]2CN(C3=Nc4ccccc4Nc4sc(C)cc43)CCN2)cc1 (as salt: hydrochloride) [Example 179, 10-((S)-3-(2-(4-methoxy-phenyl)-ethyl)-piperazin-1-yl)-2-methyl-4H-3-thia-4,9-diaza-benzo[f]azulene dihydrochloride] |
| 201 °C (dec.) | COc1cccc(CC[C@H]2CN(C3=Nc4ccccc4Nc4sc(C)cc43)CCN2)c1 (as salt: hydrochloride) [Example 180, 10-((S)-3-(2-(3-Methoxy-phenyl)-ethyl)-piperazin-1-yl)-2-methyl-4H-3-thia-4,9-diaza-benzo[f]azulene dihydrochloride] |
| 202 °C (dec.) | COc1ccccc1CC[C@H]1CN(C2=Nc3ccccc3Nc3sc(C)cc32)CCN1 (as salt: hydrochloride) [Example 181, 10-((S)-3-(2-(2-Methoxy-phenyl)-ethyl)-piperazin-1-yl)-2-methyl-4H-3-thia-4,9-diaza-benzo[f]azulene dihydrochloride] |
| 253 °C (dec.) | Cc1cc2c(s1)Nc1ccccc1N=C2N1CCN(C)[C@@H](CCc2ccc(F)cc2)C1 (as salt: hydrochloride) [Example 182, 10-((S)-3-(2-(4-Fluoro-phenyl)-ethyl]-4-methyl-piperazin-1-yl)-2-methyl-4H-3-thia-4,9-diaza-benzo[f]azulene dihydrochloride] |
| 225 °C (dec.) | Cc1cc2c(s1)Nc1ccccc1N=C2N1CCN(C)[C@@H](CCc2cccc(F)c2)C1 (as salt: hydrochloride) [Example 183, 10-((S)-3-(2-(3-Fluoro-phenyl)-ethyl)-4-methyl-piperazin-1-yl)-2-methyl-4H-3-thia-4,9-diaza-benzo[f]azulene dihydrochloride] |
| 203 °C (dec.) | Cc1cc2c(s1)Nc1ccccc1N=C2N1CCN(C)[C@@H](CCc2ccccc2F)C1 (as salt: hydrochloride) [Example 184, 10-((S)-3-(2-(2-Fluoro-phenyl)-ethyl)-4-methyl-piperazin-1-yl)-2-methyl-4H-3-thia-4,9-diaza-benzo[f]azulene dihydrochloride] |
| 239 °C (dec.) | COc1ccc(CC[C@H]2CN(C3=Nc4ccccc4Nc4sc(C)cc43)CCN2C)cc1 (as salt: hydrochloride) [Example 185, 10-((S)-3-(2-(4-Methoxy-phenyl)-ethyl)-4-methyl-piperazin-1-yl)-2-methyl-4H-3-thia-4,9-diaza-benzo[f]azulene dihydrochloride] |
| 200 °C (dec.) | COc1cccc(CC[C@H]2CN(C3=Nc4ccccc4Nc4sc(C)cc43)CCN2C)c1 (as salt: hydrochloride) [Example 186, 10-((S)-3-(2-(3-Methoxy-phenyl)-ethyl)-4-methyl-piperazin-1-yl)-2-methyl-4H-3-thia-4.9-diaza-benzo[f]azulene dihydrochloride] |
| 213 °C (dec.) | COc1ccccc1CC[C@H]1CN(C2=Nc3ccccc3Nc3sc(C)cc32)CCN1C (as salt: hydrochloride) [Example 187, 10-((S)-3-(2-(2-Methoxy-phenyl)-ethyl)-4-methyl-piperazin-1-yl)-2-methyl-4H-3-thia-4,9-diaza-benzo[f]azulene dihydrochloride] |
| 235 °C | CC(C)c1nc2c(s1)Nc1ccccc1N=C2N1CCN(C)[C@@H](Cc2ccccc2)C1 (as salt: hydrochloride) [Example 477, (S)-10-(3-Benzyl-4-methyl-piperazin-1-yl)-2-isopropyl-4H-3-thia-1,4,9-triaza-benzo[f]azulene dihydrochloride] |
| 230 °C | Cc1nc2c(s1)Nc1ccccc1N=C2N1CCN(C)[C@@H](CCc2cccc(F)c2)C1 (as salt: hydrochloride) [Example 479, (S)-10-{3-[2-(3-Fluoro-phenyl)-ethyl]-4-methyl-piperazin-1-yl}-2-methyl-4H-3-thia-1,4,9-triaza-benzo[f]azulene dihydrochloride] |
| 228 °C | CC(C)c1nc2c(s1)Nc1ccccc1N=C2N1CCN(C)[C@@H](CCc2ccc(F)cc2)C1 (as salt: hydrochloride) [Example 481, (S)-10-{3-[2-(4-Fluoro-phenyl)-ethyl]-4-methyl-piperazin-1-yl}-2-isopropyl-4H-3-thia-1,4,9-triaza-benzo[f]azulene dihydrochloride] |
| 180 to 182 °C | COc1ccc(CC[C@H]2CN(C3=Nc4cc(F)ccc4Nc4sc(C)cc43)CCN2C)cc1.Cl (stereo in doubt) |
| 68 to 74 °C (dec.) | Cc1cc2c(s1)Nc1ccccc1N=C2N1CCN[C@@H](CCc2cccc(Cl)c2)C1 [Example 387, 10-((S)-3-[2-(3-Chloro-phenyl)-ethyl]-piperazin-1-yl)-2-methyl-4H-3-thia-4,9-diaza-benzo[f]azulene] |
| 91 °C (dec.) | Cc1cc2c(s1)Nc1ccccc1N=C2N1CCN[C@@H](CCc2ccc(Cl)cc2)C1 [Example 388, 10-((S)-3-[2-(4-Chloro-phenyl)-ethyl]-piperazin-1-yl)-2-methyl-4H-3-thia-4,9-diaza-benzo[f]azulene] |
| 72 °C (dec.) | Cc1cc2c(s1)Nc1ccccc1N=C2N1CCN[C@@H](CCc2ccccc2Cl)C1 [Example 389, 10-((S)-3-[2-(2-Chloro-phenyl)-ethyl]-piperazin-l-yl)-2-methyl-4H-3-thia-4,9-diaza-benzo[f]azulene] |

| melting point | Compound |
| --- | --- |
| 79 °C (dec.) | Cc1cc2c(s1)Nc1ccccc1N=C2N1CCN(C)[C@@H](CCc2ccc(Cl)cc2)C1 [Example 390, 10-((S)-3-[2-(4-Chloro-phenyl)-ethyl]-4-methyl-piperazin-1-yl)-2-methyl-4H-3-thia-4,9-diaza-benzo[f]azulene] |
| 69 °C (dec.) | Cc1cc2c(s1)Nc1ccccc1N=C2N1CCN(C)[C@@H](CCc2cccc(Cl)c2)C1 [Example 391, 10-((S)-3-[2-(3-Chloro-phenyl)-ethyl]-4-methyl-piperazin-1-yl)-2-methyl-4H-3-thia-4,9-diaza-benzo[f]azulene] |
| 72 °C (dec.) | Cc1cc2c(s1)Nc1ccccc1N=C2N1CCN(C)[C@@H](CCc2ccccc2Cl)C1 [Example 392, 10-((S)-3-[2-(2-Chloro-phenyl)-ethyl]-4-methyl-piperazin-1-yl)-2-methyl-4H-3-thia-4,9-diaza-benzo[f]azulene] |
| 78 °C (dec.) | Cc1cc2c(s1)Nc1ccccc1N=C2N1CCN[C@@H](CCc2ccc(C(F)(F)F)cc2)C1 [Example 393, 10-((S)-3-[2-(4-Trifluoromethyl-phenyl)-ethyl]-piperazin-1-yl)-2-methyl-4H-3-thia-4,9-diaza-benzo[f]azulene] |
| 73 °C (dec.) | Cc1cc2c(s1)Nc1ccccc1N=C2N1CCN[C@@H](CCc2ccccc2C(F)(F)F)C1 [Example 394, 10-((S)-3-[2-(2-Trifluoromethyl-phenyl)-ethyl]-piperazin-1-yl)-2-methyl-4H-3-thia-4,9-diaza-benzo[f]azulene] |
| 69 °C (dec.) | Cc1cc2c(s1)Nc1ccccc1N=C2N1CCN[C@@H](CCc2cccc(C(F)(F)F)c2)C1 [Example 395, 10-((S)-3-[2-(3-Trifluoromethyl-phenyl)-ethyl]-piperazin-1-yl)-2-methyl-4H-3-thia-4,9-diaza-benzo[f]azulene] |
| 72 °C (dec.) | Cc1cc2c(s1)Nc1ccccc1N=C2N1CCN(C)[C@@H](CCc2ccc(C(F)(F)F)cc2)C1 [Example 396, 10-((S)-3-[2-(4-Trifluoromethyl-phenyl)-ethyl]-4-methyl-piperazin-1-yl)-2-methyl-4H-3-thia-4,9-diaza-benzo[f]azulene] |
| 68 °C (dec.) | Cc1cc2c(s1)Nc1ccccc1N=C2N1CCN(C)[C@@H](CCc2ccccc2C(F)(F)F)C1 [Example 397, 10-((S)-3-[2-(2-Trifluoromethyl-phenyl)-ethyl]-4-methyl-piperazin-1-yl)-2-methyl-4H-3-thia-4,9-diaza-benzo[f]azulene] |
| 69 °C (dec.) | Cc1cc2c(s1)Nc1ccccc1N=C2N1CCN[C@@H](CCc2ccc(F)cc2F)C1 [Example 399, 10-((S)-3-[2-(2,4-Difluoro-phenyl)-ethyl]-piperazin-1-yl)-2-methyl-4H-3-thia-4,9-diaza-benzo[f]azulene] |
| 93 to 96 °C | CC(C)(C)c1cc2c(s1)Nc1ccccc1N=C2N1CCN[C@@H](CCc2ccccc2)C1 [Example 445, (S)-2-tert-Butyl-10-(3-phenethyl-piperazin-1-yl)-4H-3-thia-4,9-diaza-benzo[f]azulene] |
| 250 to 252 °C | Cc1nc2c(s1)Nc1ccccc1N=C2N1CCN[C@@H](Cc2ccccc2)C1 [Example 462] |
| 84 °C (dec.) | Cc1ccc2c(c1)Nc1ccccc1N=C2N1CCN(C)CC1 [Example 574, 3-Methyl-11-(4-methyl-piperazin-1-yl)-3-methyl-5H-dibenzo[b,e][1,4]diazepine] |
| 64 to 80 °C | Cc1ccc2c(c1)Nc1ccccc1N=C2N1CCN[C@@H](CCc2ccccc2)C1 [Example 575, 3-Methyl-11-[(S)-3-phenethyl-piperazin-1-yl]-5H-dibenzo[b,e][1,4]diazepine] |
| 65 °C (dec.) | Cc1ccc2c(c1)Nc1ccccc1N=C2N1CCN(C)[C@@H](CCc2ccccc2)C1 [Example 576, 3-Methyl-11-[4-methyl-(S)-3-phenethyl-piperazin-1-yl]-5H-dibenzo[b,e][1,4]diazepine] |
| 81 °C (dec.) | Cc1ccc2c(c1)Nc1ccccc1N=C2N1CCN[C@@H](CCc2cccc(F)c2)C1 [Example 577, 11-{(S)-3-[2-(3-Fluoro-phenyl)-ethyl]-piperazin-1-yl}-3-methyl-5H-dibenzo[b,e][1,4]diazepine] |
| 63 °C (dec.) | Cc1ccc2c(c1)Nc1ccccc1N=C2N1CCN(C)[C@@H](CCc2cccc(F)c2)C1 [Example 578, 11-{(S)-3-[2-(3-Fluoro-phenyl)-ethyl]-4-methyl-piperazin-1-yl}-3-methyl-5H-dibenzo[b,e][1,4]diazepine] |
| 170 to 177 °C (dec.) | Cc1ccc2c(c1)C(N1CCN(C)CC1)=Nc1ccccc1N2 [Example 579] |
